Test results as given in patent US7205433B2, “Crystal of amino acid ester salt and process for producing the same” (Ajinomoto Co., Inc., priority 2002, dated 2007).

How the values were obtained:
Assay type in all cases: physicochemical
[1] = Experimental Example 1: comparison of hygroscopicity by weight gain over time (44 to 45% RH); details: 22 to 24° C.
Method: L-Ala-OEt HCl salt and L-Ala-OEt MsOH salt were measured into in a glass container in an amount of 1.6 g each, dried in vacuo at 30° C. for 5 hours, left under conditions of temperature: 22 to 24° C., humidity: 44 to 45% RH, and then the hygroscopicity was compared based on the weight gain over the lapse of time. […] The liquefied portion increased with the lapse of time, and the entire salt became liquid 750 minutes later with no observable crystal.

[2] = Experimental Example 4: comparison of hygroscopicity by weight gain over time (40 to 46% RH); details: 24° C.
Method: The L-Ala-OEt HCl salt, L-Ala-OEt MsOH salt, L-Ala-OEt BsOH salt, L-Ala-OEt 4-CBS salt, L-Ala-OEt 4-EBS salt, L-Ala-OEt 2,4-DMBS salt, and L-Ala-OEt 2,5-DMBS salt were measured in an amount of about 0.3 g each, left standing in a thermostatic chamber at a temperature of 24° C. and a humidity of 40 to 46% RH, and the hygroscopicity was compared based on the weight gain with the lapse of time. A part of the crystal of the L-Ala-OEt HCl salt was liquefied in 30 minutes, and the liquefied portion increased thereafter with the lapse of time. After 100 minutes, the whole mass became like a sherbet.

[3] = Experimental Example 5: comparison of hygroscopicity by weight gain over time (60 to 66% RH); details: 24 EC
Method: The L-Ala-OMe HCl salt, L-Ala-OEt MsOH salt, L-Ala-OEt BsOH salt, L-Ala-OEt 4-CBS salt, L-Ala-OEt 4-EBS salt, L-Ala-OEt 2,4-DMBS salt, and L-Ala-OEt 2,5-DMBS salt were measured in an amount of about 0.3 g each, left standing in a thermostatic chamber at a temperature of 24 EC and a humidity of 60 to 66% RH, and the hygroscopicity was compared based on the weight gain with the lapse of time.

[4] = Experimental Example 2: comparison of hygroscopicity by weight gain over time (62 to 64% RH); details: 24° C.
Method: In the same manner as in Experimental Example 1, L-Ala-OEt MsOH salt and L-Ala-OMe HCl salt were measured into a glass container in an amount of 0.6 g each, left under conditions of temperature: 24° C., humidity: 62 to 64% RH, and then the hygroscopicity was compared based on the weight gain with the lapse of time.

[5] = Comparative Example 9: crystals left standing at room temperature; details: left standing at room temperature for a while
Text: The crystals were separated and dried to give L-alanine methyl ester benzenesulfonate (L-Ala-OMe BsOH salt) crystals. The crystals were left standing at room temperature for a while.

## CCOC(=O)[C@H](C)N.CS(=O)(=O)O [L-Ala-OEt MsOH salt, L-alanine ethyl ester methanesulfonate]
[1]; 0 minutes
  weight increase rate (% relative to initial weight): 0.00%
[1]; 1 minutes
  weight increase rate (% relative to initial weight): 0.08%
[1]; 2 minutes
  weight increase rate (% relative to initial weight): 0.11%
[1]; 3 minutes
  weight increase rate (% relative to initial weight): 0.17%
[1]; 4 minutes
  weight increase rate (% relative to initial weight): 0.17%
[1]; 6 minutes
  weight increase rate (% relative to initial weight): 0.23%
[1]; 10 minutes
  weight increase rate (% relative to initial weight): 0.36%
[1]; 15 minutes
  weight increase rate (% relative to initial weight): 0.41%
[1]; 25 minutes
  weight increase rate (% relative to initial weight): 0.48%
[1]; 35 minutes
  weight increase rate (% relative to initial weight): 0.56%
[1]; 50 minutes
  weight increase rate (% relative to initial weight): 0.58%
[1]; 60 minutes
  weight increase rate (% relative to initial weight): 0.59%
[1]; 75 minutes
  weight increase rate (% relative to initial weight): 0.63%
[1]; 90 minutes
  weight increase rate (% relative to initial weight): 0.57%
[1]; 120 minutes
  weight increase rate (% relative to initial weight): 0.58%
[1]; 150 minutes
  weight increase rate (% relative to initial weight): 0.58%
[1]; 180 minutes
  weight increase rate (% relative to initial weight): 0.61%
[1]; 750 minutes
  weight increase rate (% relative to initial weight): 1.16%
[1]; up to 750 minutes
  change in weight with the lapse of time: almost no change in weight
  liquefaction: liquefaction was not observed
[2]; 0 minutes
  weight increase rate (%): 0.00%
[2]; 15 minutes
  weight increase rate (%): 0.03%
[2]; 30 minutes
  weight increase rate (%): 0.03%
[2]; 45 minutes
  weight increase rate (%): 0.00%
[2]; 60 minutes
  weight increase rate (%): 0.19%
[2]; 75 minutes
  weight increase rate (%): 0.35%
[2]; 90 minutes
  weight increase rate (%): 0.35%
[2]; 120 minutes
  weight increase rate (%): 0.42%
[2]; 150 minutes
  weight increase rate (%): 0.39%
[2]; 180 minutes
  weight increase rate (%): 0.55%
[3]; 0 minutes
  weight increase rate (%): 0.00%
[3]; 10 minutes
  weight increase rate (%): 0.32%
[3]; 20 minutes
  weight increase rate (%): 0.35%
[3]; 35 minutes
  weight increase rate (%): 0.38%
[3]; 50 minutes
  weight increase rate (%): 0.38%
[3]; 65 minutes
  weight increase rate (%): 0.41%
[3]; 80 minutes
  weight increase rate (%): 0.44%
[3]; 95 minutes
  weight increase rate (%): 0.44%
[3]; 110 minutes
  weight increase rate (%): 0.48%
[3]; 125 minutes
  weight increase rate (%): 0.44%
[3]; 140 minutes
  weight increase rate (%): 0.48%
[3]; 155 minutes
  weight increase rate (%): 0.48%
[3]; 170 minutes
  weight increase rate (%): 0.51%
[3]; 185 minutes
  weight increase rate (%): 0.48%
[3]; 200 minutes
  weight increase rate (%): 0.51%
[4]; 0 minutes
  weight increase rate (% relative to initial weight): 0.00%
[4]; 10 minutes
  weight increase rate (% relative to initial weight): 0.18%
[4]; 20 minutes
  weight increase rate (% relative to initial weight): 0.26%
[4]; 35 minutes
  weight increase rate (% relative to initial weight): 0.39%
[4]; 50 minutes
  weight increase rate (% relative to initial weight): 0.53%
[4]; 65 minutes
  weight increase rate (% relative to initial weight): 0.55%
[4]; 80 minutes
  weight increase rate (% relative to initial weight): 0.63%
[4]; 95 minutes
  weight increase rate (% relative to initial weight): 0.70%
[4]; 110 minutes
  weight increase rate (% relative to initial weight): 0.78%
[4]; 125 minutes
  weight increase rate (% relative to initial weight): 0.94%
[4]; 140 minutes
  weight increase rate (% relative to initial weight): 1.01%
[4]; 155 minutes
  weight increase rate (% relative to initial weight): 1.00%
[4]; 170 minutes
  weight increase rate (% relative to initial weight): 1.13%
[4]; 185 minutes
  weight increase rate (% relative to initial weight): 1.26%
[4]; 200 minutes
  weight increase rate (% relative to initial weight): 1.32%
[4]; up to 200 minutes
  change in weight with the lapse of time: not much change in weight
  liquefaction: liquefaction was not observed

## COC(=O)[C@H](C)N.O=S(=O)(O)c1ccccc1 [L-Ala-OMe BsOH salt, L-alanine methyl ester benzenesulfonate]
[5]
  stability of the crystals: the crystals were liquefied and failed to provide stable crystals
